Reference: US20180338980A1, “AROMATIC SULFONAMIDE DERIVATIVES” (BAYER PHARMA AKTIENGESELLSCHAFT, priority 2015, published 2018)
“And” between values parts separate entries of the source, which are not always exact repeats. Equal entries are not always repeated.

Columns and labels:
[1] = biological target: T1, P2X4 (Homo sapiens, UniProt Q99571); experiment: Assay B: human P2X4 receptor cell line, mitochondrial photina luminescence (agonist Bz-ATP at EC50); format: cell-based; set-up: host or cells: HEK 293 (recombinant, constitutively expressing; with mitochondrial photina in Assay B); conditions: HEK human P2X4 cell line, photina luminescence, agonist Bz-ATP at EC50, average; for Emax: read-out: human P2X4 Assay B avg Efficacy
T1 sequence (Q99571 1-388): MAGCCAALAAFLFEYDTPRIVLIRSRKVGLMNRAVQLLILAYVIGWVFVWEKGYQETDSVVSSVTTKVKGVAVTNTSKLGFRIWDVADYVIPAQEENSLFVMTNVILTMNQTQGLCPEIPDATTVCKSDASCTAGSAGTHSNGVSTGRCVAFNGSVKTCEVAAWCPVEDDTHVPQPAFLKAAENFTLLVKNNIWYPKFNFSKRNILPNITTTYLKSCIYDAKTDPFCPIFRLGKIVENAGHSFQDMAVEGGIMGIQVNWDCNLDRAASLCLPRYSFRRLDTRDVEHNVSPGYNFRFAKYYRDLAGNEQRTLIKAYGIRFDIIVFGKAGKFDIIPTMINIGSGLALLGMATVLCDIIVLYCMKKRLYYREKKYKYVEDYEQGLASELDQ
In short: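 Recombinant cell line constitutively expressing human P2X4 and mitochondrial photina photoprotein, reconstituted with coelenterazine. Receptor stimulated with Bz-ATP at EC50; calcium influx read immediately as luminescence.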

[2] = biological target: T1, P2X4; experiment: Assay A: human P2X4 receptor cell line, FLIPR calcium assay (Fluo-8, agonist Bz-ATP at EC80); format: cell-based; set-up: host or cells: HEK 293 (recombinant, constitutively expressing; with mitochondrial photina in Assay B); conditions: HEK human P2X4 cells, Fluo-8 FLIPR; for IC50: Bz-ATP at EC80, average values; for Emax: percentage of maximal inhibition, read-out: human P2X4 Assay A avg Efficacy
Method: A fluorescent imaging plate reader (FLEX/FLIPR station; Molecular Devices) was used to monitor intracellular calcium levels using the calcium-chelating dye Fluo-8 (Molecular Probes). […] Cells expressing purinergic receptors human P2X4 (HEK human P2X4: PerkinElmer, Product No.: AX-015-PCF) were plated at a density of 20,000 cells/well in poly-D-lysine-coated 384-well plates approximately 20 hours before beginning the assay. On the day of the assay, the medium was removed and 30 μl of dye buffer (Hank's balanced salt solution, 10 mM HEPES, 1.8 mM CaCl2), 1 mM MgCl2, 2 mM probenecid, 5 mM D-glucose monohydrate, 5 μM Fluo-8, pH=7.4) was added for 30 min at […] and 5% CO2. The antagonist in probenecid buffer (Hank's balanced salt solution, 10 mM HEPES, 1.8 mM CaCl2, 1 mM MgCl2, 2 mM probenecid, 5 mM D-glucose monohydrate, pH=7.4) was added in a volume of 10 μl and allowed to incubate for 30 min at room temperature. The final assay DMSO concentration is 0.5%. The agonist, Bz-ATP, is added in a volume of 10 μl at a concentration representing the EC80 value. The fluorescence was measured for an interval of 120 sec at 2 sec intervals and analyzed based on the increase in peak relative fluorescence units (RFU) compared to the basal fluorescence. Peak fluorescence was used to determine the response to agonist obtained at each concentration of antagonist by the following equation:
% Response=100*(RFU(drug)−RFU(control))/(RFU(DMSO)−RFU(control))
The compounds were tested in triplicates per plate and mean values were plotted in Excel XLFit to determine IC50 values, percentage of maximal inhibition and the Hill coefficients.

Row | SMILES | IC50 [1] [nM] | Emax [1] [%] | IC50 [2] | Emax [2] [%]
1 | N#Cc1cccc(Oc2ccc(NC(=O)Cc3ccccc3)cc2S(N)(=O)=O)c1 [Example 255, N-[4-(3-Cyanophenoxy)-3-sulfamoylphenyl]-2-phenylacetamide] | 271 | 64 |  | 
2 | CC(C(=O)Nc1ccc(Oc2cccc(Cl)c2)c(S(N)(=O)=O)c1)c1c(Cl)cccc1Cl (centres unmarked) [Example 260, N-[4-(3-Chlorophenoxy)-3-sulfamoylphenyl]-2-(2,6-dichlorophenyl)propanamide] |  |  | 2490 nM | 90
3 | [2H]c1c([2H])c([2H])c(Oc2ccc(NC(=O)Cc3ccccc3Cl)cc2S(N)(=O)=O)c([2H])c1[2H] [Example 261, 2-(2-Chlorophenyl)-N-{4-[(^2H5)phenyloxy]-3-sulfamoylphenyl}acetamide] |  |  |  | 89
4 | [2H]c1c([2H])c([2H])c(Oc2ccc(NC(=O)Cc3ccccc3Cl)cc2S(N)(=O)=O)c(Cl)c1[2H] [Example 263, 2-(2-Chlorophenyl)-N-(4-{[2-chloro(^2H4)phenyl]oxy}-3-sulfamoylphenyl)acetamide] |  |  |  | 95
5 | CC1(C)CC(COc2ccc(NC(=O)Cc3ccccc3Cl)cc2S(N)(=O)=O)CCO1 (centres unmarked) [Example 265, 2-(2-Chlorophenyl)-N-{4-[(2,2-dimethyltetrahydro-2H-pyran-4-yl)methoxy]-3-sulfamoylphenyl}acetamide] |  |  | 416 nM | 74
6 | NS(=O)(=O)c1cc(NC(=O)Cc2ccccc2Cl)ccc1OCC1(Cl)CCOCC1 [Example 267, 2-(2-Chlorophenyl)-N-{4-[(4-chlorotetrahydro-2H-pyran-4-yl)methoxy]-3-sulfamoylphenyl}acetamide] |  |  | 4440 nM | 76
7 | NS(=O)(=O)c1cc(NC(=O)Cc2ccccc2Cl)ccc1OCC1COCCO1 (centres unmarked) [Example 268, 2-(2-Chlorophenyl)-N-[4-(1,4-dioxan-2-ylmethoxy)-3-sulfamoylphenyl]acetamide] |  |  |  | 77
8 | NS(=O)(=O)c1cc(NC(=O)Cc2ccc3c(c2)OCCO3)ccc1Oc1ccc(Cl)cc1 [Example 276, N-[4-(4-Chlorophenoxy)-3-sulfamoylphenyl]-2-(2,3-dihydro-1,4-benzodioxin-6-yl)acetamide] | > 50000 | 35 |  | 
9 | NS(=O)(=O)c1cc(NC(=O)Cc2cc3c(cc2Cl)OCCO3)ccc1Oc1cccc(Cl)c1 [Example 277, 2-(7-Chloro-2,3-dihydro-1,4-benzodioxin-6-yl)-N-[4-(3-chlorophenoxy)-3-sulfamoylphenyl]acetamide] | 185 | 45 |  | 
10 | NS(=O)(=O)c1cc(NC(=O)Cc2ccc(F)cc2Cl)ccc1OCC1CCOCC1 [Example 282, 2-(2-Chloro-4-fluorophenyl)-N-[3-sulfamoyl-4-(tetrahydro-2H-pyran-4-ylmethoxy)phenyl]acetamide] |  |  |  | 82
11 | NS(=O)(=O)c1cc(NC(=O)Cc2ccccc2Cl)ccc1Oc1ccc(C(F)(F)F)nc1 [Example 283, 2-(2-Chlorophenyl)-N-(3-sulfamoyl-4-{[6-(trifluoromethyl)pyridin-3-yl]oxy}phenyl)-acetamide] |  |  | 8050 nM | 62
12 | NS(=O)(=O)c1cc(NC(=O)Cc2ccccc2Cl)ccc1Oc1cc(C(F)(F)F)c(Cl)cn1 [Example 284, 2-(2-Chlorophenyl)-N-(4-{[5-chloro-4-(trifluoromethyl)pyridin-2-yl]oxy}-3-sulfamoyl-phenyl)acetamide] |  |  | 10900 nM | 82
13 | NS(=O)(=O)c1cc(NC(=O)Cc2ccccc2Cl)ccc1OCC1(O)CCCCC1 [Example 288, 2-(2-Chlorophenyl)-N-{4-[(1-hydroxycyclohexyl)methoxy]-3-sulfamoylphenyl}-acetamide] |  |  | 988 nM | 57
14 | NS(=O)(=O)c1cc(NC(=O)Cc2ccccc2F)cc(F)c1Oc1cccc(Cl)c1 [Example 289, N-[4-(3-Chlorophenoxy)-3-fluoro-5-sulfamoylphenyl]-2-(2-fluorophenyl)acetamide] |  |  | > 25000 nM | 34
15 | NS(=O)(=O)c1cc(NC(=O)Cc2ccccc2C(F)F)cc(F)c1Oc1cccc(Cl)c1 [Example 290, N-[4-(3-Chlorophenoxy)-3-fluoro-5-sulfamoylphenyl]-2-[2-(difluoromethyl)-phenyl]acetamide] |  |  | 16000 nM | 66
16 | NS(=O)(=O)c1cc(NC(=O)Cc2ccccc2Cl)cc(F)c1Oc1cccc(Cl)c1 [Example 291, N-[4-(3-Chlorophenoxy)-3-fluoro-5-sulfamoylphenyl]-2-(2-chlorophenyl)acetamide] |  |  | 10500 nM and > 25000 nM | 57
17 | NS(=O)(=O)c1cc(NC(=O)Cc2cc(F)ccc2Cl)cc(F)c1Oc1cccc(Cl)c1 [Example 292, 2-(2-Chloro-5-fluorophenyl)-N-[4-(3-chlorophenoxy)-3-fluoro-5-sulfamoyl-phenyl]acetamide] |  |  | 15100 nM | 69

More lines, now with the values ahead:

Row | IC50 [1] [nM] | Emax [1] [%] | IC50 [2] | Emax [2] [%] | SMILES
18 |  |  | 19 nM | 75 | NS(=O)(=O)c1cc(NC(=O)Cc2ccc(O)cc2)ccc1Oc1cccc(Cl)c1 [Example 256, N-[4-(3-Chlorophenoxy)-3-sulfamoylphenyl]-2-(4-hydroxyphenyl)acetamide]
19 |  |  | 355 nM | 85 | COc1cc(C)cc(Cl)c1CC(=O)Nc1ccc(Oc2cccc(Cl)c2)c(S(N)(=O)=O)c1 [Example 257, 2-(2-Chloro-6-methoxy-4-methylphenyl)-N-[4-(3-chlorophenoxy)-3-sulfamoylphenyl]acetamide]
20 |  |  | 145 nM | 76 | NS(=O)(=O)c1cc(NC(=O)Cc2c(F)cc(F)cc2Cl)ccc1Oc1cccc(Cl)c1 [Example 259, 2-(2-Chloro-4,6-difluorophenyl)-N-[4-(3-chlorophenoxy)-3-sulfamoylphenyl]acetamide]
21 |  |  | 42 nM | 54 | [2H]c1c([2H])c(Oc2ccc(NC(=O)Cc3ccccc3Cl)cc2S(N)(=O)=O)c([2H])c([2H])c1Cl [Example 262, 2-(2-Chlorophenyl)-N-(4-{[4-chloro(^2H4)phenyl]oxy}-3-sulfamoylphenyl)acetamide]
22 |  |  | 63 nM | 89 | NS(=O)(=O)c1cc(NC(=O)Cc2ccccc2Cl)ccc1OC[C@H]1[C@@H]2COC[C@@H]21 [Example 266, 2-(2-Chlorophenyl)-N-{4-[(1R,5S,6r)-3-oxabicyclo[3.1.0]hex-6-ylmethoxy]-3-sulfamoylphenyl}acetamide]
23 |  |  | 237 nM | 55 | NS(=O)(=O)c1cc(NC(=O)Cc2ccccc2Cl)ccc1Oc1cnc(Cl)c(F)c1 [Example 286, N-{4-[(6-Chloro-5-fluoropyridin-3-yl)oxy]-3-sulfamoylphenyl}-2-(2-chlorophenyl)-acetamide]
24 |  |  | 187 nM | 58 | NS(=O)(=O)c1cc(NC(=O)Cc2ccccc2Cl)ccc1OCC1(O)CCC(F)(F)CC1 [Example 287, 2-(2-Chlorophenyl)-N-{4-[(4,4-difluoro-1-hydroxycyclohexyl)methoxy]-3-sulfamoyl-phenyl}acetamide]
25 |  |  | 72 nM | 67 | NS(=O)(=O)c1cc(NC(=O)Cc2ccccc2F)cnc1Oc1cccc(Cl)c1 [Example 293, N-[6-(3-Chlorophenoxy)-5-sulfamoylpyridin-3-yl]-2-(2-fluorophenyl)acetamide]
26 |  |  | 107 nM | 84 | NS(=O)(=O)c1cc(NC(=O)Cc2ccccc2C(F)(F)F)cnc1Oc1cccc(Cl)c1 [Example 294, N-[6-(3-Chlorophenoxy)-5-sulfamoylpyridin-3-yl]-2-[2-(trifluoromethyl)phenyl]-acetamide]
27 |  |  | 155 nM | 85 | NS(=O)(=O)c1cc(NC(=O)Cc2ccccc2C(F)F)cnc1Oc1cccc(Cl)c1 [Example 295, N-[6-(3-Chlorophenoxy)-5-sulfamoylpyridin-3-yl]-2-[2-(difluoromethyl)phenyl]-acetamide]
